Source: patent US9012496B2, “Pharmaceutical compositions of (R)-1-(2,2-difluorobenzo[D][1,3]dioxol-5-yl)-N-(1-(2,3-dihydroxypropyl)-6-fluoro-2-(1-hydroxy-2-methylpropan-2-yl)-1H-indol-5-yl)cyclopropanecarboxamide and administration thereof” (Vertex Pharmaceuticals Incorported, priority 2012, dated 2015)

Target: T1, ΔF508-CFTR (Homo sapiens, UniProt P13569, DEL508-508)
T1 construct: expressed in transfected cells; host or cells: NIH3T3 mouse fibroblasts (optical membrane potential assay, whole-cell and single-channel recordings); Fisher rat epithelial (FRT) cells (Ussing chamber)
Assay: Assays for detecting and measuring ΔF508-CFTR correction properties (membrane potential optical assay; electrophysiological assays)
Assay type: cell-based
Excerpt: Assays for Detecting and Measuring ΔF508-CFTR Correction Properties of Compounds
Membrane potential optical methods for assaying ΔF508-CFTR modulation properties of compounds.
The optical membrane potential assay utilized voltage-sensitive FRET sensors described by Gonzalez and Tsien (See Gonzalez, J. E. and R. Y. Tsien (1995) “Voltage sensing by fluorescence resonance energy transfer in single cells” Biophys J 69(4): 1272-80, and Gonzalez, J. E. and R. Y. Tsien (1997) “Improved indicators of cell membrane potential that use fluorescence resonance energy transfer” Chem Biol 4(4): 269-77) in combination with instrumentation for measuring fluorescence changes such as the Voltage/Ion Probe Reader (VIPR) (See, Gonzalez, J. E., K. Oades, et al. (1999) “Cell-based assays and instrumentation for screening ion-channel targets” Drug Discov Today 4(9): 431-439).
These voltage sensitive assays are based on the change in fluorescence resonant energy transfer (FRET) between the membrane-soluble, voltage-sensitive dye, DiSBAC2(3), and a fluorescent phospholipid, CC2-DMPE, which is attached to the outer leaflet of the plasma membrane and acts as a FRET donor. […] The changes in fluorescence emission were monitored using VIPR™ II, which is an integrated liquid handler and fluorescent detector designed to conduct cell-based screens in 96- or 384-well microtiter plates. […]

T1 sequence (P13569 with tags, fused parts or gaps DEL508-508): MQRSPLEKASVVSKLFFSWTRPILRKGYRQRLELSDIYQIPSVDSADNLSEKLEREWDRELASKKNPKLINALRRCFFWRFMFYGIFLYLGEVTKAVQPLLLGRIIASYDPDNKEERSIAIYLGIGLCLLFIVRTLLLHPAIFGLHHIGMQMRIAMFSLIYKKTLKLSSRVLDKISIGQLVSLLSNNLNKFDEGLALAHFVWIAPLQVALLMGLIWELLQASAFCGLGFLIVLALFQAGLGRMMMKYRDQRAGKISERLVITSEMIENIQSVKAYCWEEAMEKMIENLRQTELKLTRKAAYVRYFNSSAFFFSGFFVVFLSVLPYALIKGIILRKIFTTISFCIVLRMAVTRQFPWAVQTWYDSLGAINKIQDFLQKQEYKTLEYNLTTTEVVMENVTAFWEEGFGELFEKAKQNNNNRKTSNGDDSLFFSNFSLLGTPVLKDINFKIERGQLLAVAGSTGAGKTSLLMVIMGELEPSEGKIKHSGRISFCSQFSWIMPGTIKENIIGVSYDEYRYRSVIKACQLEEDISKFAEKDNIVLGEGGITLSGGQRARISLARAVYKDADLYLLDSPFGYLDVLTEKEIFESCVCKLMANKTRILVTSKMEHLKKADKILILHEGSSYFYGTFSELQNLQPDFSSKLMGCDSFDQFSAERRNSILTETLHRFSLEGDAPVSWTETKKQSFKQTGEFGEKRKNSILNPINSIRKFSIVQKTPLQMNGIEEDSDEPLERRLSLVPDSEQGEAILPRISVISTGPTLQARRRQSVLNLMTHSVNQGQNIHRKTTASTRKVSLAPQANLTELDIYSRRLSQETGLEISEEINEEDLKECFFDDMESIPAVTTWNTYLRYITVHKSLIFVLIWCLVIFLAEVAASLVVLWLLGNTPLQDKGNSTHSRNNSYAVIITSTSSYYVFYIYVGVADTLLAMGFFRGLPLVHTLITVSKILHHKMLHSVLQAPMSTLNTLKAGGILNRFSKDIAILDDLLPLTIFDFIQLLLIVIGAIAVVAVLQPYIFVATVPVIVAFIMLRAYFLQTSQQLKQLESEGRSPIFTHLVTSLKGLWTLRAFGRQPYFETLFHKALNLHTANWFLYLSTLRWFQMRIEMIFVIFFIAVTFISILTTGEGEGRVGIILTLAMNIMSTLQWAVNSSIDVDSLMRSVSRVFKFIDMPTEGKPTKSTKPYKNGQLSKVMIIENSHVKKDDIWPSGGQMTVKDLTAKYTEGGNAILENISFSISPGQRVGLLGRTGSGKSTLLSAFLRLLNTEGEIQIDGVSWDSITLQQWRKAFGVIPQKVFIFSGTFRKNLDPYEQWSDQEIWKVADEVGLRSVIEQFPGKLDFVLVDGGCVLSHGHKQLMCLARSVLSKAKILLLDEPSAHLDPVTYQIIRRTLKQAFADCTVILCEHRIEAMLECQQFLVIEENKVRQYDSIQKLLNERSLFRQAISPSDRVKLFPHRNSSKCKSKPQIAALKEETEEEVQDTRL

- EC50 (NIH3T3 mouse fibroblasts stably expressing ΔF508-CFTR, read-out: BinnedEC50): ≤ 2 µM
- BinnedMaxEfficacy (PercentActivity bins): +++ (100.0 < +++)
Structure (SMILES): CC(C)(CO)c1cc2cc(NC(=O)C3(c4ccc5c(c4)OC(F)(F)O5)CC3)c(F)cc2n1C[C@@H](O)CO [Compound 1, (R)-1-(2,2-difluorobenzo[d][1,3]dioxol-5-yl)-N-(1-(2,3-dihydroxypropyl)-6-fluoro-2-(1-hydroxy-2-methylpropan-2-yl)-1H-indol-5-yl)cyclopropanecarboxamide]
